Like-named read-outs stand apart in the source and are kept apart here.
Columns and labels:
[1] = Liver microsomal metabolic stability, human liver microsomes (HLM); conditions: human, liver microsomes
Description: Samples were prepared by adding 222.5 μL of a master solution (100 mM phosphate buffer and 1 mg/mL liver microsomes (HLM or RLM)) and 25 μL of a 10 mM NADPH solution to incubation plates, which were then warmed for 10 min. Each compound was separately dissolved in DMSO to prepare 10 mM stock solutions, which were then diluted to 100 μM with acetonitrile. A reaction was started by adding 2.5 μL of the 100 μM solution of each compound to separate incubation plates such that the final concentration of for each compound in each plate was 1 μM.
25 μL aliquots of each sample were taken at 0.5, 5, 10, 15, 20 and 30 minutes, and the reaction was stopped by adding 5 volumes of cold acetonitrile with IS (100 nM alprazolam, 200 nM caffeine and 100 nM tolbutamide). The samples were then centrifuged at 3,220 G for 30 minutes, and 100 μL of the supernatant fluid was mixed with 100 μL of ultra-pure H2O.
The samples were then analyzed by LC-MS/MS. Peak areas were determined from extracted ion chromatograms. Slope values (k) were determined by linear regression of the natural logarithm of the remaining percentage of the compound vs. incubation time curve. The in vitro half-life (in vitro t1/2) was determined from the slope value using the following equation:

USP1/UAF1 enzyme = USP1/UAF1 enzyme (Homo sapiens, UniProt O94782); experiment: USP1/UAF1 deubiquitination assay (ubiquitin-rhodamine 110 substrate); assay type: biochemical; conditions: read-out: USP1 IC50 (Ub-Rho)
In short: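 Cleavage of 150 nM ubiquitin-rhodamine 110 by 0.05 nM USP1/UAF1 was followed as fluorescence (Ex480/Em540, kinetic, 30 min) in Tris-HCl pH 7.8 buffer with EDTA, BSA, DTT and Tween-20. Compounds, top 10 μM, were preincubated with enzyme 10 min; % inhibition against no-enzyme and DMSO wells gave four-parameter IC50s.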

[2] = ADME solubility determination in PBS at pH 2.0 and pH 7.4; assay type: physicochemical; conditions: phosphate buffered saline, 25 °C, thermodynamic from solid
Description: Certain Compounds of the Disclosure were assessed for ADME solubility at pH 2.0 and pH 7.4.
Stock solutions were prepared by adding each compound to DMSO at a concentration of 10 mM. Samples were prepared by adding 50 μL of each stock solution to separate vials. The vials were loaded onto a 96-well rack and dried. 500 μL of Phosphate Buffered Saline (PBS) pH 7.4 or PBS pH 2.0 were added into each vial. The vials were then shaken at 25° C. and 1,100 rpm for 24 hours.
After 24 hours, the vials were centrifuged at 3220 G and 25° C. for 30 minutes. The supernatant fluid was analyzed by LC-MS/MS against a standard of known concentration. The solubility of each sample was then calculated using the equation below: […]
where DF is the dilution factor.

[3] = Liver microsomal metabolic stability, rat liver microsomes (RLM); conditions: rat, liver microsomes, t1/2 (min) in RLM, 1 μM compound, 1 mg/mL microsomes, NADPH
[4] = pH 2, aqueous buffer, PBS pH 2.0, 25° C., read-out: Solubility at pH 2.0
[5] = pH 7.4, aqueous buffer, PBS pH 7.4, 25° C., read-out: Solubility at pH 7.4

Chain of USP1/UAF1 enzyme (O94782 whole entry): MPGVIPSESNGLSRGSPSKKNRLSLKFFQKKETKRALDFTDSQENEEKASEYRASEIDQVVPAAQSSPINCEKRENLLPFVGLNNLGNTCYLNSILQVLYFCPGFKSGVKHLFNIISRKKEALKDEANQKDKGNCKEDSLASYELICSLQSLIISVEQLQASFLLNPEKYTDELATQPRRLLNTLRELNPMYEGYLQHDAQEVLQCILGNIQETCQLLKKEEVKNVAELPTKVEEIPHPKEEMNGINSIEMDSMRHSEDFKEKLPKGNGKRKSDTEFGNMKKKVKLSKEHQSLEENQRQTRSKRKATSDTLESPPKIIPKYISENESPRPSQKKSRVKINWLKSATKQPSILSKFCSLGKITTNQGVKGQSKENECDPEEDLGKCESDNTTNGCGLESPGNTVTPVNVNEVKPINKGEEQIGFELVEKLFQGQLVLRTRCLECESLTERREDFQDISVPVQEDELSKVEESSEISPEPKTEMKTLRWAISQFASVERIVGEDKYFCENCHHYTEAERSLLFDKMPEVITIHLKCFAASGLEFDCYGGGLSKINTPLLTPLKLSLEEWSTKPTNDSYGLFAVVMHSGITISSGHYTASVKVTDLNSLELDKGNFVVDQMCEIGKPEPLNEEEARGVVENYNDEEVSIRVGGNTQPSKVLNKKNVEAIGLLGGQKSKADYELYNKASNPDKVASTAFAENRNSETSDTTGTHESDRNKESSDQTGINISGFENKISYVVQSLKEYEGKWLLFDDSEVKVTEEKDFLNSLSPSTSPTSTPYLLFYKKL
Chain of USP1/UAF1 enzyme (Q8TAF3 whole entry partner): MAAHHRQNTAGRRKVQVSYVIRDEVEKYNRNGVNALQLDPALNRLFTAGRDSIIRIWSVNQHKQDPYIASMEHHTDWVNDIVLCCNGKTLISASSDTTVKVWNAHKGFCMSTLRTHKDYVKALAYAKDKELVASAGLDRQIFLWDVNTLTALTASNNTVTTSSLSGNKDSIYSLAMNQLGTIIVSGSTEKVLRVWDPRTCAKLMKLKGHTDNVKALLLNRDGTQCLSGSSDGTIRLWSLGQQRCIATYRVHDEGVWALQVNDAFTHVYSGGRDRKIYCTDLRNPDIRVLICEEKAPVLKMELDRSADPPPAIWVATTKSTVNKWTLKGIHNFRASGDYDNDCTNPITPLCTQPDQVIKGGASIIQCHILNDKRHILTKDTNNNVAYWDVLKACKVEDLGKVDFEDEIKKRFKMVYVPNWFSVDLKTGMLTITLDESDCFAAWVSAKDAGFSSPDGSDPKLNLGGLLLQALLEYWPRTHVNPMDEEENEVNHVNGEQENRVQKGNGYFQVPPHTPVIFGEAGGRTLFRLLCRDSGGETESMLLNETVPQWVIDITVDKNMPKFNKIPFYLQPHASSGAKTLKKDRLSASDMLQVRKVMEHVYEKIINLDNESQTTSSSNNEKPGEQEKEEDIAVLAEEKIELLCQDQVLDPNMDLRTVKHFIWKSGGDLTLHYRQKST

Row | SMILES | half-life at 1 μM [1] | IC50 (USP1/UAF1 enzyme) | solubility at 24 h [2, 4] | solubility at 24 h [2, 5] | half-life at 1 μM [3]
1 | CCn1cc(C(F)(F)F)nc1-c1ccc(N[C@@H]2CCCn3nc(-c4c(Cl)cnn4[C@H](C)CF)cc32)cc1 (single isomer, unassigned) [Example 323] | > 25 min | < 100 nM | < 10 µM | < 10 µM | > 25 min
2 | CCn1cc(C(F)(F)F)nc1-c1ccc(N[C@@H]2CCCn3nc(-c4c(Cl)cnn4[C@@H](C)CF)cc32)cc1 (single isomer, unassigned) [Example 324] | > 25 min | < 100 nM | < 10 µM | < 10 µM | > 25 min
3 | COc1ncnc(C2CC2)c1-c1cc2n(n1)CCC(=O)N2Cc1ccc(-n2nc(C(F)(F)F)cc2C)cc1 [Example 4, 2-(4-cyclopropyl-6-methoxypyrimidin-5-yl)-4-(4-(5-methyl-3-(trifluoromethyl)-1H-pyrazol-1-yl)benzyl)-6,7-dihydropyrazolo[1,5-a]pyrimidin-5(4H)-one] | > 25 min | < 100 nM | < 10 µM | < 10 µM | > 25 min
4 | COc1ncnc(C2CC2)c1-c1cc2n(n1)CCC(=O)N2Cc1ccc(-n2nc(C#N)cc2OC)c(F)c1 [Example 8, (4-((2-(4-cyclopropyl-6-methoxypyrimidin-5-yl)-5-oxo-6,7-dihydropyrazolo[1,5-a]pyrimidin-4(5H)-yl)methyl)-2-fluorophenyl)-5-methoxy-1H-pyrazole-3-carbonitrile] | > 25 min | 100 to 500 nM | ≥ 10 µM | < 10 µM | > 25 min
5 | COc1ccnc(C(C)C)c1-c1cc2n(n1)CCC(=O)N2Cc1ccc(-c2nc(C(F)(F)F)cn2C)cc1 [Example 13, 2-(2-isopropyl-4-methoxypyridin-3-yl)-4-(4-(1-methyl-4-(trifluoromethyl)-1H-imidazol-2-yl)benzyl)-6,7-dihydropyrazolo[1,5-a]pyrimidin-5(4H)-one] | < 25 min | 100 to 500 nM | ≥ 10 µM | ≥ 10 µM | < 25 min
6 | Cn1cc(C(F)(F)F)nc1-c1ccc(CN2C(=O)CCn3nc(-c4c(Cl)cnn4C4CCC4)cc32)cc1F [Example 19, 2-(4-chloro-1-cyclobutyl-1H-pyrazol-5-yl)-4-(3-fluoro-4-(1-methyl-4-(trifluoromethyl)-1H-imidazol-2-yl)benzyl)-6,7-dihydropyrazolo[1,5-a]pyrimidin-5(4H)-one] | < 25 min | < 100 nM | < 10 µM | < 10 µM | < 25 min
7 | Cc1cnn(C(C)C)c1-c1cc2n(n1)CC(C)C(=O)N2Cc1ccc(-c2nc(C(F)(F)F)cn2C)cc1 (stereo not drawn) [Example 31, 2-(1-isopropyl-4-methyl-1H-pyrazol-5-yl)-6-methyl-4-(4-(1-methyl-4-(trifluoromethyl)-1H-imidazol-2-yl)benzyl)-6,7-dihydropyrazolo[1,5-α]pyrimidin-5(4H)-one] | < 25 min | 100 to 500 nM | ≥ 10 µM | < 10 µM | < 25 min
8 | COc1ncnc(C2CC2)c1-c1cc2n(n1)CC(C)C(=O)N2Cc1ccc(-c2nc(C(F)(F)F)cn2C)cc1 (stereo not shown) [Example 32] | > 25 min | < 100 nM | ≥ 10 µM | < 10 µM | > 25 min
9 | Cc1cnn(C(C)C)c1-c1nn2c(c1Cl)N(Cc1ccc(-c3nc(C(F)(F)F)cn3C)cc1)C(=O)CC2 [Example 34] | < 25 min | 100 to 500 nM | < 10 µM | < 10 µM | < 25 min
10 | Cc1cnn(C(C)C)c1-c1cc2n(n1)C(C)CC(=O)N2Cc1ccc(-c2nc(C(F)(F)F)cn2C)cc1 (stereo not drawn) [Example 36, 2-(1-isopropyl-4-methyl-1H-pyrazol-5-yl)-7-methyl-4-(4-(1-methyl-4-(trifluoromethyl)-1H-imidazol-2-yl)benzyl)-6,7-dihydropyrazolo[1,5-α]pyrimidin-5(4H)-one] | < 25 min | < 100 nM | ≥ 10 µM | ≥ 10 µM | < 25 min
11 | COCCOc1cc(CN2C(=O)CCn3nc(-c4c(Cl)cnn4C(C)C)nc32)ccc1-c1nc(C(F)(F)F)cn1C(C)C [Example 167] | – | 100 to 500 nM | < 10 µM | < 10 µM | –

Other lines, results leading:

Row | half-life at 1 μM [1] | IC50 (USP1/UAF1 enzyme) | solubility at 24 h [2, 4] | solubility at 24 h [2, 5] | half-life at 1 μM [3] | SMILES
12 | – | 100 to 500 nM | – | – | – | COc1ncnc(C2CC2)c1-c1nc2n(n1)CC(C)C(=O)N2Cc1ccc(-c2nc(C(F)(F)F)cn2C(C)CF)cc1 (stereo not shown) [Example 383, 2-(4-cyclopropyl-6-methoxypyrimidin-5-yl)-4-(4-(1-(1-fluoropropan-2-yl)-4-(trifluoromethyl)-1H-imidazol-2-yl)benzyl)-6-methyl-6,7-dihydro-[1,2,4]triazolo[1,5-a]pyrimidin-5(4H)-one]
13 | – | < 100 nM | – | – | – | CCn1cc(C(F)(F)F)nc1-c1ccc(C(C)N2C(=O)C(C)Cn3nc(-c4c(OC)ncnc4C4CC4)nc32)cc1 (stereo not shown) [Example 384, 2-(4-cyclopropyl-6-methoxypyrimidin-5-yl)-4-(1-(4-(1-ethyl-4-(trifluoromethyl)-1H-imidazol-2-yl)phenyl)ethyl)-6-methyl-6,7-dihydro-[1,2,4]triazolo[1,5-a]pyrimidin-5(4H)-one]
14 | – | < 100 nM | – | – | – | Cn1cc(C(F)(F)F)nc1-c1ccc(Cn2c(=O)ccn3nc(-c4c(OC(F)F)ncnc4C4CC4)nc23)cc1F [Example 385, 2-(4-cyclopropyl-6-(difluoromethoxy)pyrimidin-5-yl)-4-(3-fluoro-4-(1-methyl-4-(trifluoromethyl)-1H-imidazol-2-yl)benzyl)-[1,2,4]triazolo[1,5-a]pyrimidin-5(4H)-one]
15 | – | < 100 nM | – | – | – | COc1ncnc(C2CC2)c1-c1nc2n(Cc3ccc(-c4nc(C(F)(F)F)cn4C)c(F)c3)c(=O)ccn2n1 [Example 386, 2-(4-cyclopropyl-6-methoxypyrimidin-5-yl)-4-(3-fluoro-4-(1-methyl-4-(trifluoromethyl)-1H-imidazol-2-yl)benzyl)-[1,2,4]triazolo[1,5-a]pyrimidin-5(4H)-one]
16 | – | < 100 nM | – | – | – | COc1ncnc(C2CC2)c1-c1cc2n(n1)CCCC2Nc1ccc(-c2nc(C(F)(F)F)cn2CCF)cc1 (stereo not shown) [Example 387, 2-(4-cyclopropyl-6-methoxypyrimidin-5-yl)-N-(4-(1-(2-fluoroethyl)-4-(trifluoromethyl)-1H-imidazol-2-yl)phenyl)-4,5,6,7-tetrahydropyrazolo[1,5-a]pyridin-4-amine]
17 | – | < 100 nM | – | – | – | COc1ncnc(C2CC2)c1-c1cc2n(n1)CCCC2Nc1ccc(-c2nc(C(F)(F)F)cn2C)c(F)c1 (stereo not shown) [Example 388, 2-(4-cyclopropyl-6-methoxypyrimidin-5-yl)-N-(3-fluoro-4-(1-methyl-4-(trifluoromethyl)-1H-imidazol-2-yl)phenyl)-4,5,6,7-tetrahydropyrazolo[1,5-a]pyridin-4-amine]
18 | – | < 100 nM | – | – | – | [2H]C([2H])([2H])C([2H])([2H])n1cc(C(F)(F)F)nc1-c1ccc(NC2CCCn3nc(-c4c(OC)ncnc4C4CC4)cc32)cc1 (stereo not shown) [Example 389, 2-(4-cyclopropyl-6-methoxypyrimidin-5-yl)-N-(4-(1-(ethyl-d5)-4-(trifluoromethyl)-1H-imidazol-2-yl)phenyl)-4,5,6,7-tetrahydropyrazolo[1,5-a]pyridin-4-amine]
19 | – | < 100 nM | – | – | – | CC(CF)n1cc(C(F)(F)F)nc1-c1ccc(NC2CCCn3nc(-c4c(Cl)cnn4C(C)C)cc32)cc1 (stereo not shown) [Example 390, 2-(4-chloro-1-isopropyl-1H-pyrazol-5-yl)-N-(4-(1-(1-fluoropropan-2-yl)-4-(trifluoromethyl)-1H-imidazol-2-yl)phenyl)-4,5,6,7-tetrahydropyrazolo[1,5-a]pyridin-4-amine]
20 | – | < 100 nM | – | – | – | CCn1cc(C(F)(F)F)nc1-c1ccc(Cn2c(=O)c(C)cn3nc(-c4c(OC)ncnc4C4CC4)nc23)cc1 [Example 391, 2-(4-cyclopropyl-6-methoxypyrimidin-5-yl)-4-(4-(1-ethyl-4-(trifluoromethyl)-1H-imidazol-2-yl)benzyl)-6-methyl-[1,2,4]triazolo[1,5-α]pyrimidin-5(4H)-one]
21 | – | < 100 nM | – | – | – | CCn1cc(C(F)(F)F)nc1-c1ccc(Cn2c(=O)c(C)cn3nc(-c4c(OC(F)F)ncnc4C4CC4)nc23)cc1 [Example 392, 2-(4-cyclopropyl-6-(difluoromethoxy)pyrimidin-5-yl)-4-(4-(1-ethyl-4-(trifluoromethyl)-1H-imidazol-2-yl)benzyl)-6-methyl-[1,2,4]triazolo[1,5-a]pyrimidin-5(4H)-one]
22 | – | < 100 nM | – | – | – | COc1ncnc(C2CC2)c1-c1cc2n(n1)CCC[C@@H]2Oc1ccc(-c2nc(C(F)(F)F)cn2C(C)CF)cc1 (stereo partly drawn) [Example 393, (4S)-2-(4-cyclopropyl-6-methoxypyrimidin-5-yl)-4-(4-(1-(1-fluoropropan-2-yl)-4-(trifluoromethyl)-1H-imidazol-2-yl)phenoxy)-4,5,6,7-tetrahydropyrazolo[1,5-α]pyridine]
